Measured values: publication PMC3914206

Key:
panel of 442 kinases [1] = molecular target: T1, panel of 442 kinases (Homo sapiens, UniProt Q8IVH8); assay type: binding; design: KINOMEscan: ABL1(F317L)-phosphorylated / KINOMEscan: ABL1(H396P)-nonphosphorylated / KINOMEscan: ABL1(H396P)-phosphorylated / KINOMEscan: ABL1(M351T)-phosphorylated / KINOMEscan: ABL1(T315I)-phosphorylated / KINOMEscan: ABL1-nonphosphorylated / KINOMEscan: ABL1-phosphorylated / KINOMEscan: ACVR2A / KINOMEscan: ACVR2B / KINOMEscan: ADCK3 / KINOMEscan: ADCK4 / KINOMEscan: AKT1 / KINOMEscan: AKT3 / KINOMEscan: ALK / KINOMEscan: ARK5 / KINOMEscan: AURKA / KINOMEscan: AURKC / KINOMEscan: BIKE / KINOMEscan: BMPR1A / KINOMEscan: BMPR1B / KINOMEscan: BMX / KINOMEscan: BRK / KINOMEscan: BRSK1 / KINOMEscan: BRSK2 / KINOMEscan: CAMK1 / KINOMEscan: CAMK1D / KINOMEscan: CAMK1G / KINOMEscan: CAMK2A / KINOMEscan: CAMK2B / KINOMEscan: AAK1 / KINOMEscan: CAMK2D / KINOMEscan: CAMK2G / KINOMEscan: ABL1(F317I)-nonphosphorylated / KINOMEscan: ABL1(F317I)-phosphorylated / KINOMEscan: ABL1(F317L)-nonphosphorylated: unit: % Ctrl; conditions: Compound Concentration 10 µM
T1 construct: purchased KINOMEscan
T1 sequence (Q8IVH8 1-894): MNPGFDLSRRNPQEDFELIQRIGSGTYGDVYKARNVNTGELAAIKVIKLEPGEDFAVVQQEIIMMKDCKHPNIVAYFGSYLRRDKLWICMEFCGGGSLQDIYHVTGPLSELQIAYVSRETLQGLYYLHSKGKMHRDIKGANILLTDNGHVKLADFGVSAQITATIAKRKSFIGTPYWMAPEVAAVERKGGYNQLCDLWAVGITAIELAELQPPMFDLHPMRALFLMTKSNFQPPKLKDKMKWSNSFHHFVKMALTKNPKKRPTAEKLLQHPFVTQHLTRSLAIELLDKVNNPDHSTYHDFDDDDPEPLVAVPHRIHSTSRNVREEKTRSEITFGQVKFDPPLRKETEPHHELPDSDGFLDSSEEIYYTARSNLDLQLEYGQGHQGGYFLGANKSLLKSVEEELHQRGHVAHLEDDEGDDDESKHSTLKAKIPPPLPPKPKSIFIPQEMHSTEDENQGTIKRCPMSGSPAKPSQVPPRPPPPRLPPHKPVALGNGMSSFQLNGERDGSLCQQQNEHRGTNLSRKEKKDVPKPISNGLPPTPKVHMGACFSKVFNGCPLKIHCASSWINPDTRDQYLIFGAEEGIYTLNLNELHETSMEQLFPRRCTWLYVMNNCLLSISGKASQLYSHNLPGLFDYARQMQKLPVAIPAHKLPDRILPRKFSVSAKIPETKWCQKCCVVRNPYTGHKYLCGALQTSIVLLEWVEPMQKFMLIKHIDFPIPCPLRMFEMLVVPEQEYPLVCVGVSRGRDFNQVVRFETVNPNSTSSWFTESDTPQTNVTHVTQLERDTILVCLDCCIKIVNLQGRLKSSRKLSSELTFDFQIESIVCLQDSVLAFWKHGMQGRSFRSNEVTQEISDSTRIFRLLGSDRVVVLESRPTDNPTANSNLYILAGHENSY
Source text: (§1) We assessed the selectivity of members of this scaffold using the KINOMEscan methodology across a near comprehensive panel of 442 kinases [[18,27]].

panel of 442 kinases [2] = molecular target: T2, panel of 442 kinases (Homo sapiens, UniProt Q8NI60); assay type: binding; design: KINOMEscan: ABL1(F317L)-phosphorylated / KINOMEscan: ABL1(H396P)-nonphosphorylated / KINOMEscan: ABL1(H396P)-phosphorylated / KINOMEscan: ABL1(M351T)-phosphorylated / KINOMEscan: ABL1(T315I)-phosphorylated / KINOMEscan: ABL1-nonphosphorylated / KINOMEscan: ABL1-phosphorylated / KINOMEscan: ACVR2A / KINOMEscan: ACVR2B / KINOMEscan: ADCK3 / KINOMEscan: ADCK4 / KINOMEscan: AKT1 / KINOMEscan: AKT3 / KINOMEscan: ALK / KINOMEscan: ARK5 / KINOMEscan: AURKA / KINOMEscan: AURKC / KINOMEscan: BIKE / KINOMEscan: BMPR1A / KINOMEscan: BMPR1B / KINOMEscan: BMX / KINOMEscan: BRK / KINOMEscan: BRSK1 / KINOMEscan: BRSK2 / KINOMEscan: CAMK1 / KINOMEscan: CAMK1D / KINOMEscan: CAMK1G / KINOMEscan: CAMK2A / KINOMEscan: CAMK2B / KINOMEscan: AAK1 / KINOMEscan: CAMK2D / KINOMEscan: CAMK2G / KINOMEscan: ABL1(F317I)-nonphosphorylated / KINOMEscan: ABL1(F317I)-phosphorylated / KINOMEscan: ABL1(F317L)-nonphosphorylated: unit: % Ctrl; conditions: Compound Concentration 10 µM
T2 construct: purchased KINOMEscan
T2 sequence (Q8NI60 163-647): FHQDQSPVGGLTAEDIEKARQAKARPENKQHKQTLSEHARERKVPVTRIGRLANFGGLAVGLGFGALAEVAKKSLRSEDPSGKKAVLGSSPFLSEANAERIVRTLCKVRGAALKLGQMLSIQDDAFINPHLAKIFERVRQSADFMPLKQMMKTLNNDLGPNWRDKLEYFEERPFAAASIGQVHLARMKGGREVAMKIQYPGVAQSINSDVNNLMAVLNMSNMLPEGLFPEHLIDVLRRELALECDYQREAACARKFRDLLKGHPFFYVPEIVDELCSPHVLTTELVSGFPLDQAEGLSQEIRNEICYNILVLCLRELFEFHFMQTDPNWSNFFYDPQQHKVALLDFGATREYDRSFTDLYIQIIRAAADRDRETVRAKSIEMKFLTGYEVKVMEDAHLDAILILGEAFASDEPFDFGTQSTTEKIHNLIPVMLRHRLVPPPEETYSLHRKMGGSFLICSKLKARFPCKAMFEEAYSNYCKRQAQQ
Source text: as §1

| SMILES | KINOMEscan: MAP4K3 (panel of 442 kinases [1]) | KINOMEscan: ADCK3 (panel of 442 kinases [2]) |
| --- | --- | --- |
| COc1cc(C(=O)N2CCC(N3CCN(C)CC3)CC2)ccc1Nc1ncc2c(n1)N(C)c1ccccc1C(=O)N2C [15 (LRRK2-IN-1)] | 71 | 71 |
| COc1cc(C(=O)N2CCC(N3CCN(C)CC3)CC2)ccc1Nc1ncc2c(n1)N1CCc3cccc(c31)C(=O)N2C [Compound 24] | – | 56 |
| COc1cc(C(=O)N2CCC(N3CCN(C)CC3)CC2)ccc1Nc1ncc2c(n1)N(C1CCCC1)c1ccccc1C(=O)N2C [Compound 25, 11-cyclopentyl-2-((2-methoxy-4-(4-(4-methylpiperazin-1-yl)piperidine-1-carbonyl)phenyl)amino)-5-methyl-5H-benzo[e]pyrimido[5,4-b][1,4]diazepin-6(11H)-one] | 100 | 61 |
| CCOc1cc(C(=O)N2CCC(N3CCN(C)CC3)CC2)ccc1Nc1ncc2c(n1)N(C1CCCC1)c1ccccc1C(=O)N2C [Compound 26] | 98 | 59 |
